Test results published in US12433872B2, “Treatment of Acanthamoeba or Balamuthia trophozoites and/or cysts” (GEORGIA STATE UNIVERSITY RESEARCH FOUNDATION, INC., priority 2018, dated 2025).
Where a name gives a salt, the structure may show the parent alone. Read-outs that look alike come from different tables or passages of the source.

Tests used:
B. mandrillaris = conditions: previous in vitro testing, cited from earlier work; for effect against B. mandrillaris: in words
[1] = tested on: Acanthamoeba healyi cysts; experiment: Encystation drug susceptibility / excystation viability assay, 30 day recovery, A. healyi cysts; assay type: cell-based; conditions: 720 h, read-out: A. healyi 30 day MCC
Description: (§1) The trophozoites of Acanthamoeba were harvested by mechanical detachment and collected via centrifugation at 4000 rpm at 4° C. for 5 minutes. The trophozoites were washed in 10 mL of Neff's Encystment Media (NEM). NEM composition is 20 mM Tris-HCL [pH 8.8] (2.43 g/L), 100 mM KCL (7.46 g/L), 8 mM MgSO4 (962.96 mg/L), 0.4 mM CaCL2 58.81 mg/L) and 1 mM NaHCO3 (84.01 mg/L) (Neff et al. 1964). All reagents were bought from Sigma Aldrich. Centrifugation of the trophozoites was repeated to ensure any residual growth medium was removed. The pellet was resuspended in a final volume of 15 mL of NEM, cultured in 75 cm^2 corning tissue culture flasks and incubated vertically in a thermal shaker, shaken at 100 rpm at 37° C. for 72 hours to produce fully matured cysts. NEM was supplemented with 250 μg of penicillin/streptomycin. Fresh cysts were produced each time for any experimentation.
(§2) At 72 hours the cysts were harvested using a cell scraper and collected via centrifugation at 4000 rpm at 25° C. for 10 minutes. The cells were washed twice in 10 mL of HyClone™ water, Molecular Biology Grade, and centrifugation was repeated to ensure the removal of any residual NEM. The cell suspension was washed with 0.5% sodium dodecyl sulphate (SDS) to remove any remaining trophozoites and immature cysts. The fully mature cysts were further washed twice with 10 mL of HyClone™ water and 1% NEM, centrifugation was repeated to remove any residue of SDS. The concentration of mature cysts was determined using a haemocytometer and adjusted to 1×10^4 cysts/mL in NEM.
(§3) All test compounds were prepared as 5 mg/mL stock solutions in dimethylsulfoxide (DMSO). All compounds were diluted in NEM, serially diluted in 2-fold dilutions 6 or 11 times, yielding a screening concentration range of 1.56 μg/mL to 50 μg/mL or 48 ng/mL to 50 μg/mL with a final highest screening concentration of 1% DMSO.
(§4) Based on this, a strain specific test period and also a 30 day non-specific recovery time were considered. For the 30 day recovery period, the media was changed 5 times to ensure the contents of wells dis not evaporate and have an effect within the results of the assay.
(§5) 90 μL of 1×10^4 Cysts/ml and 10 μL of experimental compounds from the screening plates were produced according to the protocols above and combined into a Corning clear 96 well treated tissue culture plate. Control wells include cysts in non-drug treated, 1% DMSO, NEM (to be used for negative growth control), NEM Blank, PG blank and cysts in non-drug treated, 1% DMSO, PG (to excyst cells and to be used for positive growth control). The total well volume for all wells was 100 μL. The drug exposed plates were screened at 27° C. for 6 or 24 hours only. At the exposure time point the plates were centrifuged at 4000 rpm at 25° C. for 10 minutes and washed twice with phosphate-buffered saline (PBS) to remove any residual experimental compound.
(§6) Once the plate(s) underwent the Encystation drug susceptibility process, all wells except the negative growth control and NEM blank wells received PG growth medium. All plates were left to recover at 27° C. for the strain specific time period of 5, 9 or 11 days depending on the species of Acanthamoeba. At each of the strain specific time points the plates were removed from incubation and microscopically analysed (qualitatively) for the excystation process for the emergence of excysted viable trophozoites or residual cysts. The presence of excysted trophozoites indicated viable amoebae (non-cystistatic or cysticidal—no effect) and the absence of excystation was considered as cystistatic/cysticidal effects.

A549 cells = experiment: Toxicity to human A549 cells; assay type: cell-based
Acanthamoeba cysts = experiment: 30 day cysticidal studies, species not given; assay type: cell-based; conditions: for cysticidal activity over 30 day period: in words; for selectivity index (SI): text b496, A549 IC50 versus 30 day MCC
Description: As cells were removed during the 5× media changes for the 30 day time point at concentrations of drugs that allowed excystation, only qualitative, microscopic analysis was performed.

[2] = tested on: Acanthamoeba culbertsoni (ATCC30171) cysts; experiment: Encystation drug susceptibility / excystation viability assay, 30 day recovery, A. culbertsoni cysts; assay type: cell-based; conditions: ATCC30171, 720 h, read-out: A. culbertsoni 30 day MCC
Description: as §1, §2, §3, §4, §5, §6

[3] = tested on: Acanthamoeba castellanii (ATCC50370) cysts; experiment: Encystation drug susceptibility / excystation viability assay, 30 day recovery, A. castellanii cysts; assay type: cell-based; conditions: ATCC50370, 720 h, read-out: A. castellanii 30 day MCC
Description: as §1, §2, §3, §4, §5, §6

[4] = tested on: Acanthamoeba castellanii trophozoites; experiment: Activity against Acanthamoeba castellanii trophozoites; assay type: cell-based
[5] = tested on: Balamuthia mandrillaris trophozoites; experiment: Activity against Balamuthia mandrillaris trophozoites; assay type: cell-based; conditions: Balamuthia mandrillaris, read-out: Balamuthia mandrillaris IC50
Description: Balamuthia mandrillaris trophozoites were thawed and grown in 10 ml of BM-3 medium. […] After autoclaving, complete BM-3 media was produced by the addition of 10% fetal bovine serum and 125 μg of penicillin/streptomycin antibiotics. The table describes all of the compounds and the activity against Balamuthia trophozoites compared to the activity for select Acanthamoeba trophozoites shown in Table 5.

[6] = minimum cysticidal concentration, no recovery up to 30 days
[7] = human A549 cells, read-out: A549 cell IC50
[8] = read-out: A. cactellanii Trophozoite IC50
[9] = Homo sapiens, A549, read-out: A549 cell IC50
[10] = read-out: Acanthamoeba castellanii IC50
[11] = trophozoites, n = 2, Table 6, read-out: Acanthamoeba castellanii IC50

Row | SMILES | MCC [1, 6] | IC50 (A549 cells; [7]) | MCC [2, 6] | MCC [3, 6] | IC50 [4, 8] | IC50 ([5]; trophozoites, n = 2) | IC50 [4, 11] | also measured
1 | C[C@@H]1[C@H](O)[C@@H](C)/C=C/C=C/C=C/C=C/C=C/C=C/C=C/[C@H](O[C@@H]2O[C@H](C)[C@@H](O)[C@H](N)[C@@H]2O)C[C@@H]2O[C@](O)(C[C@@H](O)C[C@@H](O)[C@H](O)CC[C@@H](O)C[C@@H](O)CC(=O)O[C@H]1C)C[C@H](O)[C@H]2C(=O)O [amphotericin B] |  |  |  |  |  |  |  | effect against B. mandrillaris (B. mandrillaris): marginal effects
2 | N=C(N)c1ccc(OCCCCCOc2ccc(C(=N)N)cc2)cc1 [pentamidine] |  |  |  |  |  |  |  | concentration at which most effective drug against B. mandrillaris (B. mandrillaris; same value in μM): 29.38 µM; concentration at which most effective drug against B. mandrillaris (B. mandrillaris): 10 µg/mL
3 | CCCCC(CC)CNC(=N)NC(=N)NCCCCCCNC(=N)NC(=N)NCC(CC)CCCC (stereo not shown) [Alexidine HCL, alexidine, reference compound] | 5.37 µM | 1580 nM | 5370 nM | 5.37 µM | 1710 nM |  |  | cysticidal activity over 30 day period (Acanthamoeba cysts): shows cysticidal activity; selectivity index (SI) (Acanthamoeba cysts): 0.29
4 | CC(C)NC(=N)c1ccc2nc(-c3ccc(Oc4cc(F)c(-c5nc6ccc(C(=N)NC(C)C)cc6[nH]5)c(F)c4)cc3Br)[nH]c2c1 [Compound G, 2-(2-Bromo-4-(3,5-difluoro-4-(6-(N-isopropylcarbamimidoyl)-1H-benzo[d]imidazol-2-yl)phenoxy)phenyl)-N-isopropyl-1H-benzo[d]imidazole-6-carboximidamide] |  |  |  |  | 260 nM |  |  | MCC [1]: 1.75 µM; IC50 (A549 cells; [9]): 6020 nM; MCC [2]: 1750 nM; MCC [3]: 1.75 µM; IC50 [5]: 110 nM; IC50 [4, 10]: 260 nM
5 | CC(C)NC(=N)c1ccc2nc(-c3ccc(Oc4ccc(-c5nc6ccc(C(=N)NC(C)C)cc6[nH]5)c(Br)c4)c(F)c3)[nH]c2c1 [Q, 2-(2-Bromo-4-(2-fluoro-4-(6-(N-isopropylcarbamimidoyl)-1H-benzo[d]imidazol-2-yl)phenoxy)phenyl)-N-isopropyl-1H-benzo[d]imidazole-6-carboximidamide] | 3.6 µM | 3510 nM | 2700 nM | 3.6 µM |  | 100 nM | 410 nM | 
6 | COc1cc(Oc2ccc(-c3nc4ccc(C(=N)NC(C)C)cc4[nH]3)c(Cl)c2)ccc1-c1nc2ccc(C(=N)NC(C)C)cc2[nH]1 [Compound S] | 1.87 µM | 2950 nM | 930 nM | 2.81 µM |  | 60 nM | 2790 nM | 
7 | CC(C)NC(=N)c1ccc2nc(-c3ccc(Oc4ccc(-c5nc6ccc(C(=N)NC(C)C)cc6[nH]5)c(Cl)c4)cc3Cl)[nH]c2c1 [L, 2-2′-(Oxybis(2-chloro-4,1-phenylene))bis(N-isopropyl-3H-benzo[d]imidazole-6-carboximidamide)] | 2.88 µM | 4170 nM | 2880 nM | 2.88 µM |  | 80 nM | 390 nM | 
8 | CC(C)NC(=N)c1ccc2nc(-c3ccc(Oc4ccc(-c5nc6ccc(C(=N)NC(C)C)cc6[nH]5)c(F)c4F)cc3Br)[nH]c2c1 [Compound H, 2-(2-Bromo-4-(2,3-difluoro-4-(6-(N-isopropylcarbamimidoyl)-1H-benzo[d]imidazol-2-yl)phenoxy)phenyl)-N-isopropyl-1H-benzo[d]imidazole-6-carboximidamide] |  |  |  |  | 270 nM |  |  | MCC [1]: 1.88 µM; IC50 (A549 cells; [9]): 3110 nM; MCC [2]: 1880 nM; MCC [3]: 1.88 µM; IC50 [5]: 100 nM; IC50 [4, 10]: 270 nM
9 | CC[C@H]1OC(=O)[C@H](C)[C@@H](O[C@H]2C[C@@](C)(OC)[C@@H](O)[C@H](C)O2)[C@H](C)[C@@H](O[C@@H]2O[C@H](C)C[C@H](N(C)C)[C@H]2O)[C@](C)(OC)C[C@@H](C)C(=O)[C@H](C)[C@@H](O)[C@]1(C)O [clarithromycin] |  |  |  |  |  |  |  | effect against B. mandrillaris (B. mandrillaris): no effect
10 | CC(C)NC(=N)c1ccc2nc(-c3cc(F)c(Oc4ccc(-c5nc6ccc(C(=N)NC(C)C)cc6[nH]5)c(Cl)c4)c(F)c3)[nH]c2c1 [Compound B, 2-(2-Chloro-4-(2,6-difluoro-4-(6-(N-isopropylcarbamimidoyl)-1H-benzo[d]imidazol-2-yl)phenoxy)phenyl)-N-isopropyl-1H-benzo[d]imidazole-6-carboximidamide] |  |  |  |  | 540 nM |  |  | MCC [1]: 3.84 µM; IC50 (A549 cells; [9]): 17100 nM; MCC [2]: 2880 nM; MCC [3]: 9.6 µM; IC50 [5]: 400 nM; IC50 [4, 10]: 540 nM
11 | CC[C@H]1OC(=O)[C@H](C)[C@@H](O[C@H]2C[C@@](C)(OC)[C@@H](O)[C@H](C)O2)[C@H](C)[C@@H](O[C@@H]2O[C@H](C)C[C@H](N(C)C)[C@H]2O)[C@](C)(O)C[C@@H](C)CN(C)[C@H](C)[C@@H](O)[C@]1(C)O [azithromycin] |  |  |  |  |  |  |  | effect against B. mandrillaris (B. mandrillaris): no effect
12 | N=C(NCCCCCCNC(=N)NC(=N)Nc1ccc(Cl)cc1)NC(=N)Nc1ccc(Cl)cc1 [Chlorhexidine, chlorhexidine, reference compound] | 100 µM | 3080 nM | 100000 nM | 100 µM | 1010 nM |  |  | cysticidal activity over 30 day period (Acanthamoeba cysts): little cysticidal activity; selectivity index (SI) (Acanthamoeba cysts): 0.03
13 | CC(C)NC(=N)c1ccc2nc(-c3ccc(Oc4ccc(-c5nc6ccc(C(=N)NC(C)C)cc6[nH]5)c(Br)c4)c(Br)c3)[nH]c2c1 [Compound R, 2-(2-Bromo-4-(2-bromo-4-(6-(N-isopropylcarbamimidoyl)-1H-benzo[d]imidazol-2-yl)phenoxy)phenyl)-N-isopropyl-1H-benzo[d]imidazole-6-carboximidamide] | 3.56 µM | 4180 nM | 2660 nM | 2.66 µM |  | 200 nM | 550 nM | 
14 | COc1cc(-c2nc3ccc(C(=N)NC(C)C)cc3[nH]2)ccc1Oc1ccc(-c2nc3ccc(C(=N)NC(C)C)cc3[nH]2)cc1F [J, 2-(3-Fluoro-4-(4-(6-(N-isopropylcarbamimidoyl)-1H-benzo[d]imidazol-2-yl)-2-methoxyphenoxy)phenyl)-N-isopropyl-1H-benzo[d]imidazole-6-carboximidamide] | 9.34 µM | 4030 nM | 7470 nM | 11.2 µM |  | 80 nM | 950 nM | 
